Measured values reported in the NIST ThermoML archive (doi:10.1021/je8009978).
± gives the expanded uncertainty stated by the source.

Assays:
[1] = refractive index (Na D-line) (dimensionless); details: 298.15 K; 101.33 kPa; Liquid; Standard Abbe refractometry
[2] = Liquid

refractive index [1]: 1.3939 ± 0.0004
mass density ([2]; 298.15 K, 101.33 kPa, Vibrating tube method): 797.6 ± 0.3 kg/m3
Normal boiling temperature ([2]; Closed cell (Static) method): 107.83 ± 0.2 °C
Compound: CC(C)CO [2-methyl-1-propanol]
